In general, pIC50 refers to the negative decadic logarithm of the IC50, by convention in mol/L. As a reminder, the half-life is the time in which the quantity being followed falls by half. A word on the AUC(0-inf): it is the area under the concentration-time curve extrapolated to infinity. A higher AUC(0-inf) goes with high exposure. Broadly, the bioavailability is dose-corrected exposure relative to a reference, in per cent. A higher bioavailability goes with good availability. A word on the Cmax: it is the peak of the concentration-time curve. As a reminder, the clearance is the rate of elimination divided by the concentration.

pIC50: −log10 of the molar value. Some results are limits rather than exact numbers.

We go through four molecules from ChEMBL document CHEMBL2407040, “Discovery and optimization of 7-aminofuro[2,3-c]pyridine inhibitors of TAK1” (Bioorg Med Chem Lett, 2013).

The target of one series is TAK1/TAB1 (Homo sapiens, UniProt O43318). In words: Inhibition of truncated TAK1-TAB1(unknown origin) using MKK7 as substrate by ALPHAScreen assay in presence of ATP. It is filed as protein-complex assay. In general terms: In Alpha technology, singlet oxygen from a donor bead excites a nearby acceptor bead.
The nature of series [1]: Metabolic stability in mouse liver microsomes assessed as extraction ratio. Format: ADME, Microsome. Particulars: read-out: ERH.
A short description of series [2]: Half life in mouse at 2 mg/kg, iv. Further details: dose 2 mg/kg, route intravenous. Format: ADME, organism-based. Particulars: in vivo.
Series [3] has as its target T1, Mitogen-activated protein kinase kinase kinase 7 (Homo sapiens, UniProt O43318).
T1 sequence (O43318 whole entry): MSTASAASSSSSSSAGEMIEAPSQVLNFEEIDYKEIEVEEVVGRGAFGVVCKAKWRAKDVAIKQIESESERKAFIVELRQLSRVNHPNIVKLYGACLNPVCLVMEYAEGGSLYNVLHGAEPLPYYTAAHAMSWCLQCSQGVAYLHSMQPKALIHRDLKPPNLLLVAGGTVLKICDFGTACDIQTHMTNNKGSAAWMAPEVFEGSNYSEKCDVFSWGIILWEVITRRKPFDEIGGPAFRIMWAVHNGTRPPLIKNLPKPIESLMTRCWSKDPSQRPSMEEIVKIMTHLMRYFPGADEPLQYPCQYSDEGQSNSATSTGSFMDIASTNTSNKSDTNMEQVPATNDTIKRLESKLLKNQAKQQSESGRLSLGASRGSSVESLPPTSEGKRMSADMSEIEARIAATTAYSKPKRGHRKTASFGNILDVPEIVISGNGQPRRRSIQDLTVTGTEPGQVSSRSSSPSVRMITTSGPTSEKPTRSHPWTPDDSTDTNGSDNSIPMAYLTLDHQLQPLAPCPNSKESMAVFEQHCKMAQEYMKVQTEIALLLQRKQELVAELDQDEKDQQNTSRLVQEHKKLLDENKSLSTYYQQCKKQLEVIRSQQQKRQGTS
In words: Inhibition of TAK1 in human HCT116 cells assessed as inhibition of TNF-alpha-stimulated JNK phosphorylation. Format: cell-based, HCT-116.

Series [4] can be described thus: AUC (0 to infinity) in mouse at 2 mg/kg, iv. It is filed as ADME, organism-based. Conditions: plasma. Further details: time infinity, dose 2 mg/kg, route intravenous.
Series [5] in a line: Metabolic stability in human liver microsomes assessed as extraction ratio. Format: ADME, Microsome. Particulars: read-out: ERH. (In general: Liver microsomes are a subcellular fraction often used to study metabolism.)
Series [6] can be described thus: Oral bioavailability in mouse at 20 mg/kg. It is filed as ADME, organism-based. Particulars: in vivo.
A short description of series [7]: Cmax in mouse at 20 mg/kg, po. Format: ADME, organism-based. Further details: dose 20 mg/kg, route oral. Conditions: in vivo.
The nature of series [8]: Volume of distribution at steady state in mouse at 2 mg/kg, iv. It is filed as ADME, organism-based. Details: dose 2 mg/kg, route intravenous. Particulars: in vivo, read-out: Vdss.
A short description of series [9]: AUC (0 to infinity) in mouse at 20 mg/kg, po. It is filed as ADME, organism-based. Details: time infinity, dose 20 mg/kg, route oral. Conditions: plasma.
A short description of series [10]: Clearance in mouse at 2 mg/kg, iv. Format: ADME, organism-based. Details: dose 2 mg/kg, route intravenous. Conditions: in vivo.
Series [11] can be described thus: Permeability of the compound by PAMPA. Format: ADME. Conditions: read-out: permeability. A general note: The PAMPA barrier holds no transporters, so it reflects passive diffusion.

Sequence of TAK1/TAB1 (Q15750 whole entry, one chain of several, the tested form may be a part): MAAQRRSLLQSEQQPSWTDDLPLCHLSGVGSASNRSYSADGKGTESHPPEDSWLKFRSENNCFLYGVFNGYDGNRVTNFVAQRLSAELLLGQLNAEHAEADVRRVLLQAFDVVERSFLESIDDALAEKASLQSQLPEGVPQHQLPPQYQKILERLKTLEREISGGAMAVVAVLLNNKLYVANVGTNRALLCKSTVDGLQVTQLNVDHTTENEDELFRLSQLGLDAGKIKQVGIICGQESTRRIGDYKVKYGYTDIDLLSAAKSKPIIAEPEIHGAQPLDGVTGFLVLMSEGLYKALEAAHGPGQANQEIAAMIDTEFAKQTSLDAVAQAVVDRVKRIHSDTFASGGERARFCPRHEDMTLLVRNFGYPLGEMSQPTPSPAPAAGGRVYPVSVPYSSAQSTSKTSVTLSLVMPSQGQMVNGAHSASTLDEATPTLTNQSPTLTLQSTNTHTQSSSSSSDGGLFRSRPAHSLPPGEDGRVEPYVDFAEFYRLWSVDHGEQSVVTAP

`CC(=O)N1CCC(n2cc(-c3cnc(N)c4oc(-c5cccc6cnsc56)cc34)cn2)CC1`: the pIC50 is 7.64 on TAK1/TAB1 and 7.36 in [3]. Further, the hepatic extraction ratio in [1] was 0.84; in series [5], 0.73. This molecule showed a half-life in series [2] of 30 min. The AUC(0-inf) is 261 ng·h/mL in series [4] and 285 ng·h/mL in series [9]. In [6], this molecule yielded a bioavailability of 11%. Besides, in [7], the Cmax came to 1600 nM. The Vd in series [8] was determined as 2.5 L/kg. This molecule also displayed a clearance in [10] of 128 mL/min/kg.

Turning to `CC(=O)N1CCC(n2cc(-c3cnc(N)c4oc(-c5cccc6ncsc56)cc34)cn2)CC1`, the negative logarithm of the IC50 (pIC50) at TAK1/TAB1 was 7.89; in [3] it was 8.00. Moreover, the hepatic extraction ratio in series [1] worked out at 0.68; in [5] it was 0.62.

As for `Nc1ncc(-c2cnn(C3CCNCC3)c2)c2cc(-c3ccccc3)oc12`, on TAK1/TAB1, the pIC50 was 5.57. The Papp in [11] was < 1 ×10⁻⁶ cm/s.

Take `Nc1ncc(-c2cnn(C3CCNCC3)c2)c2cc(-c3cccc4ccsc34)oc12`: the negative-log IC50 (pIC50) at TAK1/TAB1 is 5.92. Also, in series [11], the Papp is < 1 ×10⁻⁶ cm/s.
